Consider 2 compounds from article PMC12067350, “Discovery of Thieno[3,2‑b]pyridine-5-carboxamide and 2,3-Difluorobenzamide Negative Allosteric Modulators of Metabotropic Glutamate Receptor Subtype 5” (ACS Medicinal Chemistry Letters, 2025).

One data set concerns the target T1, CYP2C9 (Homo sapiens, UniProt P11712).
T1 construct: from tissue; host or cells: human liver microsomes
The experiment in a line: Cytochrome P450 inhibition using human liver microsomes, CYP2C9. The following applies: read-out: CYP 450 IC50, 2C9. In kind it is in vitro ADME.

In the next data set the target is T2, CYP1A2 (Homo sapiens, UniProt P05177).
T2 construct: from tissue; host or cells: human liver microsomes
T2 sequence (P05177 1-516): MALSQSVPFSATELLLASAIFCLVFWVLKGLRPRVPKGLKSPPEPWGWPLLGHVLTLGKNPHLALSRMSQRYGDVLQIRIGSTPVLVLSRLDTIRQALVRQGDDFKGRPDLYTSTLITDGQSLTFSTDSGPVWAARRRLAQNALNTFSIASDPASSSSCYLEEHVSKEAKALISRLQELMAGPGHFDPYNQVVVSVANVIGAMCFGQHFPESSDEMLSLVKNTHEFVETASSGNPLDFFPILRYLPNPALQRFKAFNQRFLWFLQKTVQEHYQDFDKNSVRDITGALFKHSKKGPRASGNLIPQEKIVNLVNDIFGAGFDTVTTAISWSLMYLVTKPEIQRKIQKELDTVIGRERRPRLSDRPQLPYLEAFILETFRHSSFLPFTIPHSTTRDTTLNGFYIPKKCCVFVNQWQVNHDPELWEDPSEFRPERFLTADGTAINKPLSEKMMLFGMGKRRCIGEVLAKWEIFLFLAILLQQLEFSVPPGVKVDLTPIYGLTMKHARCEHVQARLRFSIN
The experiment in a line: Cytochrome P450 inhibition using human liver microsomes, CYP1A2. It counts as in vitro ADME. The following applies: read-out: CYP 450 IC50, 1A2. The procedure:
Cytochrome P450 inhibition using Liver Microsomes.
The ability of compounds to inhibit cytochrome P450s (CYPs) was tested using human liver microsomes and a cocktail of substrates specific for CYP1A2, 2C9, 2D6 and 3A4. Compounds were incubated at 37C in presence of human liver microsomes (0.1 mg/ml) at 30, 10, 3, 1, 0.3 and 0.1 µM. A cocktail of substrate was also added for each CYP tested: phenacetin (10 µM, CYP1A2), diclofenac (5 µM, CYP2C9), dextromethorphan (5 µM, CYP2D6) and midazolam (2 µM, CYP3A4). HLM were also incubated with the control inhibitor miconazole at 3, 1, 0.3, 0.1, 0.03 and 0.01 µM. […]
The concentrations of CYP-specific metabolites generated at the end of the reaction were quantified by mass spectrometry using standard curves for each metabolite: acetaminophen (CYP1A2), 4-hydroxydiclofenac (CYP2C9), dextrophan (CYP2D6) and 1-hydroxymidazolam (CYP3A4). A concentration response curve for each metabolite was generated and IC50s were calculated using Prism. The LC-MS/MS transitions for metabolite quantifications are as follows. […]
Prepared samples were injected (10 µL each) onto an AB Sciex Triple Quad 4500 mass spectrometer system with an Agilent 1260 Infinity II pump and autosampler. […] Quantitation of compounds was performed via AB Sciex Multiquant software using the raw analyte:IS peak area ratios. […]
(Liver microsomes are vesicles of endoplasmic reticulum, rich in cytochrome P450 enzymes.)

Usually pIC50 stands for −log10 of the IC50, conventionally taken in molar units.

pIC50: −log10 of the molar value.

T1 sequence (P11712 whole entry): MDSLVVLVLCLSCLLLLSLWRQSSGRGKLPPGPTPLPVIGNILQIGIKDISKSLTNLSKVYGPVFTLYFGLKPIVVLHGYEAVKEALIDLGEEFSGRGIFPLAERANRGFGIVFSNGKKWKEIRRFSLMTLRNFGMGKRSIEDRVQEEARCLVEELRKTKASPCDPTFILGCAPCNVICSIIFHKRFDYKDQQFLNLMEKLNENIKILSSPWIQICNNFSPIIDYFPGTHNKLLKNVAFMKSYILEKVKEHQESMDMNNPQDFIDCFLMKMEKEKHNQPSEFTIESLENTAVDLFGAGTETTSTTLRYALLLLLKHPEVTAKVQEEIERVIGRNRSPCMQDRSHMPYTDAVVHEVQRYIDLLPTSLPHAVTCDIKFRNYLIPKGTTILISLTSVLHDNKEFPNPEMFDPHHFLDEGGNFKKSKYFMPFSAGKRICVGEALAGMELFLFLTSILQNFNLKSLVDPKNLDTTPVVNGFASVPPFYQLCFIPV

As to `Cc1csc(NC(=O)c2cc(O[C@@H]3CCOC3)c3sccc3n2)n1` [19aA], the negative logarithm of the IC50 (pIC50) is less than 4.52 on CYP2C9 and 5.92 at CYP1A2.

With `Cc1csc(NC(=O)c2cc(O[C@@H]3CCOC3)cc(F)c2F)n1` [27cA], the pIC50 is less than 4.52 at CYP2C9 and 5.89 on CYP1A2.
